# Key:
# [1] = Dissociation constant (pKa1)
# [2] = tested on: Pseudomonas aeruginosa; test: Minimum inhibitory concentration against gram-negative Pseudomonas aeruginosa U1-18 (PA-7); format: functional
# [3] = tested on: Escherichia coli; test: Minimum inhibitory concentration against gram-negative Escherichia coli Vogel (EC-1); format: functional
# [4] = tested on: Mycolicibacterium smegmatis; test: Minimum inhibitory concentration against Mycobacterium smegmatis; format: functional
# [5] = tested on: Streptococcus pyogenes; test: Minimum inhibitory concentration against gram-positive Streptococcus pyogenes C203 (SP1-1); format: functional
# [6] = tested on: Mycolicibacterium fortuitum; test: Minimum inhibitory concentration against Mycobacterium fortuitum; format: functional
# [7] = tested on: Staphylococcus aureus; test: Minimum inhibitory concentration against gram-positive Staphylococcus aureus H-228 (SA-13); format: functional
# [8] = Dissociation constant (pKa2)
smiles,measurement,setting,value
Cc1ccccc1-n1cc(C(=O)O)c(=O)c2cc(F)c(N3CCNCC3)cc21,pKa,[1],5.98
same,MIC,[2],1.6 µg/mL
same,MIC,[3],0.4 µg/mL
same,MIC,[4],8 µg/mL
same,MIC,[5],> 3.1 µg/mL
same,MIC,[6],4 µg/mL
same,MIC,[7],3.1 µg/mL
same,pKa,[8],8.59
Cc1ccccc1-n1cc(C(=O)O)c(=O)c2cc(F)c(N3CC(C)NC(C)C3)cc21 (configuration not stated),pKa,[1],6.01
same,MIC,[2],> 3.1 µg/mL
same,MIC,[3],1.6 µg/mL
same,MIC,[4],8 µg/mL
same,MIC,[5],> 3.1 µg/mL
same,MIC,[6],1 µg/mL
same,MIC,[7],> 3.1 µg/mL
same,pKa,[8],8.55
Cc1c(F)ccc(-n2cc(C(=O)O)c(=O)c3cc(F)c(N4CC(C)NC(C)C4)cc32)c1F (configuration not stated),pKa,[1],5.94
same,MIC,[2],> 3.1 µg/mL
same,MIC,[3],3.1 µg/mL
same,MIC,[4],4 µg/mL
same,MIC,[5],> 3.1 µg/mL
same,MIC,[6],1 µg/mL
same,MIC,[7],1.6 µg/mL
same,pKa,[8],8.47
CC1CN(c2cc3c(cc2F)c(=O)c(C(=O)O)cn3-c2ccc(Cl)cc2Cl)CC(C)N1 (configuration not stated),pKa,[1],5.75
same,MIC,[2],> 3.1 µg/mL
same,MIC,[3],1.6 µg/mL
same,MIC,[4],4 µg/mL
same,MIC,[5],> 3.1 µg/mL
same,MIC,[6],2 µg/mL
same,MIC,[7],> 3.1 µg/mL
same,pKa,[8],8.37
CC1CN(c2cc3c(cc2F)c(=O)c(C(=O)O)cn3-c2ccccc2)CC(C)N1 (configuration not stated),pKa,[1],6.12
same,MIC,[2],1.6 µg/mL
same,MIC,[3],0.4 µg/mL
same,MIC,[4],4 µg/mL
same,MIC,[5],3.1 µg/mL
same,MIC,[6],2 µg/mL
same,MIC,[7],1.6 µg/mL
same,pKa,[8],8.58
Cc1ccc(-n2cc(C(=O)O)c(=O)c3cc(F)c(N4CC(C)NC(C)C4)cc32)c(C)c1 (configuration not stated),pKa,[1],6.05
same,MIC,[2],> 3.1 µg/mL
same,MIC,[3],3.1 µg/mL
same,MIC,[4],16 µg/mL
same,MIC,[5],> 3.1 µg/mL
same,MIC,[6],4 µg/mL
same,MIC,[7],> 3.1 µg/mL
same,pKa,[8],8.24
Cc1ccc(-n2cc(C(=O)O)c(=O)c3cc(F)c(N4CCNCC4)cc32)c(F)c1,pKa,[1],5.96
same,MIC,[2],1.6 µg/mL
same,MIC,[3],0.2 µg/mL
same,MIC,[4],2 µg/mL
same,MIC,[5],3.1 µg/mL
same,MIC,[6],1 µg/mL
same,MIC,[7],1.6 µg/mL
same,pKa,[8],8.34
O=C(O)c1cn(-c2ccc(Cl)cc2Cl)c2cc(N3CCNCC3)c(F)cc2c1=O,MIC,[2],3.1 µg/mL
same,MIC,[3],0.4 µg/mL
same,MIC,[4],4 µg/mL
same,MIC,[5],> 3.1 µg/mL
same,MIC,[6],2 µg/mL
same,MIC,[7],> 3.1 µg/mL
CC1CN(c2cc3c(cc2F)c(=O)c(C(=O)O)cn3-c2ccc(F)cc2)CC(C)N1 (configuration not stated),MIC,[2],0.8 µg/mL
same,MIC,[3],0.2 µg/mL
same,MIC,[4],1 µg/mL
same,MIC,[5],0.8 µg/mL
same,MIC,[6],0.25 µg/mL
same,MIC,[7],0.4 µg/mL
Cc1cc(F)ccc1-n1cc(C(=O)O)c(=O)c2cc(F)c(N3CC(C)NC(C)C3)cc21 (configuration not stated),pKa,[1],6.16
same,MIC,[2],1.6 µg/mL
same,MIC,[3],0.4 µg/mL
same,MIC,[4],2 µg/mL
same,MIC,[5],> 3.1 µg/mL
same,MIC,[6],2 µg/mL
same,MIC,[7],1.6 µg/mL
same,pKa,[8],8.16
O=C(O)c1cn(-c2ccccc2F)c2cc(N3CCNCC3)c(F)cc2c1=O,MIC,[2],0.8 µg/mL
same,MIC,[3],0.1 µg/mL
same,MIC,[4],2 µg/mL
same,MIC,[5],1.6 µg/mL
same,MIC,[6],0.25 µg/mL
same,MIC,[7],0.8 µg/mL
O=C(O)c1cn(-c2ccc(F)cc2F)c2cc(N3CCNCC3)c(F)cc2c1=O,pKa,[1],5.87
same,MIC,[2],0.2 µg/mL
same,MIC,[3],0.1 µg/mL
same,MIC,[4],0.5 µg/mL
same,MIC,[5],0.4 µg/mL
same,MIC,[6],0.25 µg/mL
same,MIC,[7],0.4 µg/mL
same,pKa,[8],8.31
Cc1ccc(-n2cc(C(=O)O)c(=O)c3cc(F)c(N4CCNCC4)cc32)c(C)c1,MIC,[2],3.1 µg/mL
same,MIC,[3],0.8 µg/mL
same,MIC,[4],32 µg/mL
same,MIC,[5],> 3.1 µg/mL
same,MIC,[6],16 µg/mL
same,MIC,[7],> 3.1 µg/mL
CC1CN(c2cc3c(cc2F)c(=O)c(C(=O)O)cn3-c2ccccc2F)CC(C)N1 (configuration not stated),pKa,[1],5.88
same,MIC,[2],1.6 µg/mL
same,MIC,[3],0.4 µg/mL
same,MIC,[4],2 µg/mL
same,MIC,[5],3.1 µg/mL
same,MIC,[6],0.5 µg/mL
same,MIC,[7],1.6 µg/mL
same,pKa,[8],8.51
Cc1c(F)ccc(-n2cc(C(=O)O)c(=O)c3cc(F)c(N4CCNCC4)cc32)c1F,pKa,[1],5.87
same,MIC,[2],3.1 µg/mL
same,MIC,[3],0.8 µg/mL
same,MIC,[4],8 µg/mL
same,MIC,[5],3.1 µg/mL
same,MIC,[6],0.5 µg/mL
same,MIC,[7],1.6 µg/mL
same,pKa,[8],8.54
Cc1ccc(-n2cc(C(=O)O)c(=O)c3cc(F)c(N4CC(C)NC(C)C4)cc32)c(F)c1 (configuration not stated),MIC,[2],3.1 µg/mL
same,MIC,[3],0.8 µg/mL
same,MIC,[4],2 µg/mL
same,MIC,[5],> 3.1 µg/mL
same,MIC,[6],1 µg/mL
same,MIC,[7],3.1 µg/mL
O=C(O)c1cn(-c2ccccc2)c2cc(N3CCNCC3)c(F)cc2c1=O,MIC,[2],0.8 µg/mL
same,MIC,[3],0.1 µg/mL
same,MIC,[4],2 µg/mL
same,MIC,[5],3.1 µg/mL
same,MIC,[6],0.5 µg/mL
same,MIC,[7],0.8 µg/mL
Cc1ccc(-n2cc(C(=O)O)c(=O)c3cc(F)c(N4CCNCC4)cc32)cc1,MIC,[2],1.6 µg/mL
same,MIC,[3],0.4 µg/mL
same,MIC,[4],4 µg/mL
same,MIC,[5],> 3.1 µg/mL
same,MIC,[6],2 µg/mL
same,MIC,[7],3.1 µg/mL
CC1CN(c2cc3c(cc2F)c(=O)c(C(=O)O)cn3-c2ccc(F)cc2F)CC(C)N1 (configuration not stated),pKa,[1],5.94
same,MIC,[2],0.8 µg/mL
same,MIC,[3],0.4 µg/mL
same,MIC,[4],0.5 µg/mL
same,MIC,[5],0.8 µg/mL
same,MIC,[6],0.25 µg/mL
same,MIC,[7],0.4 µg/mL
same,pKa,[8],8.26
Cc1cc(F)ccc1-n1cc(C(=O)O)c(=O)c2cc(F)c(N3CCNCC3)cc21,pKa,[1],6.11
same,MIC,[2],0.4 µg/mL
same,MIC,[3],0.2 µg/mL
same,MIC,[4],4 µg/mL
same,MIC,[5],1.6 µg/mL
same,MIC,[6],1 µg/mL
same,MIC,[7],0.8 µg/mL
same,pKa,[8],8.37
Cc1ccc(-n2cc(C(=O)O)c(=O)c3cc(F)c(N4CC(C)NC(C)C4)cc32)cc1 (configuration not stated),pKa,[1],6.1
same,MIC,[2],3.1 µg/mL
same,MIC,[3],0.8 µg/mL
same,MIC,[4],4 µg/mL
same,MIC,[5],> 3.1 µg/mL
same,MIC,[6],1 µg/mL
same,MIC,[7],3.1 µg/mL
same,pKa,[8],8.61
O=C(O)c1cn(C2CC2)c2cc(N3CCNCC3)c(F)cc2c1=O [CIPROFLOXACIN],MIC,[2],0.2 µg/mL
same,MIC,[4],0.25 µg/mL
same,MIC,[5],0.4 µg/mL
same,MIC,[6],0.06 µg/mL
O=C(O)c1cn(-c2ccc(F)cc2)c2cc(N3CCNCC3)c(F)cc2c1=O [SARAFLOXACIN],pKa,[1],6.02
same,MIC,[2],0.2 µg/mL
same,MIC,[3],0.1 µg/mL
same,MIC,[4],1 µg/mL
same,MIC,[5],0.4 µg/mL
same,MIC,[6],0.25 µg/mL
same,MIC,[7],0.4 µg/mL
same,pKa,[8],8.59
C[C@@H]1CN(c2c(F)c(N)c3c(=O)c(C(=O)O)cn(C4CC4)c3c2F)C[C@H](C)N1 [SPARFLOXACIN],MIC,[2],0.8 µg/mL
same,MIC,[3],0.025 µg/mL
same,MIC,[4],0.13 µg/mL
same,MIC,[5],0.1 µg/mL
same,MIC,[6],0.06 µg/mL
same,MIC,[7],0.05 µg/mL

# Source: ChEMBL document CHEMBL1128492, “Effect of lipophilicity at N-1 on activity of fluoroquinolones against mycobacteria” (J Med Chem, 1995)
